This note sets out measurements from ChEMBL document CHEMBL4017472, “New modified 2-aminobenzimidazole nucleosides: Synthesis and evaluation of their activity against herpes simplex virus type 1” (Bioorg Med Chem Lett, 2017).

Data set [1] deals with Human alphaherpesvirus 1. Briefly: Antiviral activity against acyclovir-resistant HSV-1 L2 infected in African green monkey Vero E6 cells assessed as viral reproduction at 52 uM measured after 48 hrs post infection by gentian violet staining based plaque reduction assay (reference value: 5.95 +/- 0.03 log10PFU/ml). The class given is functional, Vero C1008.
Data set [2] has as its system Human alphaherpesvirus 1. In words: Antiviral activity against acyclovir and cidofovir-resistant HSV-1 L2 infected in African green monkey Vero E6 cells assessed as viral reproduction at 207 uM measured after 48 hrs post infection by gentian violet staining based plaque reduction assay (reference value: 6.52 +/- 0.11 log10PFU/ml). Format: functional, Vero C1008. (In a plaque reduction assay, fewer plaques than in the control indicate reduced infectivity or spread.)

The subject of data set [3] is Human alphaherpesvirus 1. In words: Antiviral activity against acyclovir and cidofovir-resistant HSV-1 L2 infected in African green monkey Vero E6 cells assessed as viral reproduction at 104 uM measured after 48 hrs post infection by gentian violet staining based plaque reduction assay (reference value: 6.52 +/- 0.11 log10PFU/ml). The class given is functional, Vero C1008.

Data set [4] deals with Human alphaherpesvirus 1. Briefly: Antiviral activity against acyclovir and foscarnet-resistant HSV-1 L2 infected in African green monkey Vero E6 cells assessed as viral reproduction at 104 uM measured after 48 hrs post infection by gentian violet staining based plaque reduction assay (reference value: 5.92 +/- 0.11 log10PFU/ml). Format: functional, Vero C1008.
Data set [5] relates to Human alphaherpesvirus 1. Briefly: Antiviral activity against HSV-1 L2 infected in African green monkey Vero E6 cells assessed as viral reproduction at 104 uM measured after 48 hrs post infection by gentian violet staining based plaque reduction assay (reference value: 6.91 +/- 0.05 log10PFU/ml). Format: functional, Vero C1008.
The subject of data set [6] is Human alphaherpesvirus 1. Briefly: Potency index, ratio of maribavir IC50 to compound IC50 for HSV-1 L2 infected in African green monkey Vero E6 cells. The class given is functional, Vero C1008.
The nature of data set [7]: Selectivity index, ratio of MCC for African green monkey Vero E6 cells to IC50 for HSV-1 F+ infected in African green monkey Vero E6 cells. Also on record: species or system Vero C1008.
Data set [8] is described as follows: Cytotoxicity against African green monkey Vero E6 cells measured after 3 days by trypan blue assay. The following applies: chlorocebus sabaeus. The class given is cell-based, Vero C1008.
A short description of data set [9]: Selectivity index, ratio of MCC for African green monkey Vero E6 cells to IC50 for HSV-1 L2/Rp-ACV/2 infected in African green monkey Vero E6 cells. Also on record: species or system Vero C1008.
Data set [10] concerns Human alphaherpesvirus 1. In words: Antiviral activity against foscarnet-resistant HSV-1 F+ infected in African green monkey Vero E6 cells assessed as inhibition of viral reproduction measured after 48 hrs post infection by gentian violet staining based plaque reduction assay. The class given is functional. Conditions: Vero C1008.
Data set [11] concerns Human alphaherpesvirus 1. Briefly: Antiviral activity against HSV1 L2 infected in African green monkey Vero E6 cells assessed as reduction in virus-induced cytopathic effect. Format: functional. The following applies: Human alphaherpesvirus 1, L2, Vero C1008. (Protection from cytopathic effect is a common read-out in antiviral testing.)
Data set [12] concerns Human alphaherpesvirus 1. Briefly: Antiviral activity against foscarnet-resistant HSV-1 F+ infected in African green monkey Vero E6 cells assessed as viral reproduction at 207 uM measured after 48 hrs post infection by gentian violet staining based plaque reduction assay (reference value: 6.6 +/- 0.1 log10PFU/ml). The class given is functional, Vero C1008.
Data set [13] deals with Human alphaherpesvirus 1. In words: Antiviral activity against HSV-1 L2/Rp-ACV/2 infected in African green monkey Vero E6 cells assessed as viral reproduction at 104 uM measured after 48 hrs post infection by gentian violet staining based plaque reduction assay (reference value: 6.05 +/- 0.1 log10PFU/ml). Format: functional, Vero C1008.

`Nc1nc2cc(F)c(F)cc2n1[C@@H]1O[C@H](CO)[C@@H](O)[C@H]1O`: the Activity in [1] came to 5.04 log10PFU/ml; in [2], 5.06 log10PFU/ml; in data set [3], 5.39 log10PFU/ml; in data set [4], 4.8 log10PFU/ml; in data set [5], 5.63 log10PFU/ml; in [12], 4.87 log10PFU/ml. In [13], the Activity amounted to 4.76 log10PFU/ml. Moreover, in [6], the “Ratio IC50” value was found to be 8. The “Selectivity Index” value in [7] was greater than 16; in [9], greater than 32. For the same compound, the MCC at 72 h in data set [8] is greater than 3.32 mM. In data set [10], the inhibition entry is “Dose-dependent effect”. Moreover, the IC50 in data set [11] turned out to be 104 µM. Also, in [11], the IC95 was determined as 830 µM.

The IC50 is the point on the concentration scale where inhibition reaches its midpoint. As a reminder, the IC95 is the concentration at which the effect reaches the 95% level.
